We go through 21 molecules from PubChem BioAssay AID248 (DTP/NCI, 2004).

Several values for one entry are separate records, joined by “and”; a condition that tells them apart may be missing. Equal entries are not always repeated. Inconclusive results and toxic doses are left out.

This test deals with L1210 leukemia ip in BDF1 mice, survival T/C. Nature of the test: NCI In Vivo Anticancer Drug Screen. Data for tumor model L1210 Leukemia (intraperitoneal) in B6D2F1 (BDF1) mice. Particulars: endpoint: mean survival time, higher = longer survival. In a few lines:
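Tumor cells were implanted, animals were treated, and survival was followed. The result divides the treated measurement by the vehicle-control measurement.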

The mark [1] stands for this setting: dose: 100.0 mg/kg/injection, schedule: Q01DX009 (ip), vehicle: Klucel (hydroxypropylcellulose) (HPC).
Setting [2] is: dose: 200.0 mg/kg/injection, schedule: Q01DX009 (ip), vehicle: Klucel (hydroxypropylcellulose) (HPC).
[3] abbreviates: dose: 100.0 mg/kg/injection, schedule: Q01DX001 (ip), vehicle: saline.
The mark [4] stands for this setting: dose: 200.0 mg/kg/injection, schedule: Q01DX001 (ip), vehicle: saline.
The mark [5] stands for this setting: dose: 400.0 mg/kg/injection, schedule: Q01DX001 (ip), vehicle: saline.
Setting [6] is: dose: 100.0 mg/kg/injection, schedule: Q04DX003 (ip), vehicle: Klucel (hydroxypropylcellulose) (HPC).
The mark [7] stands for this setting: dose: 200.0 mg/kg/injection, schedule: Q04DX003 (ip), vehicle: Klucel (hydroxypropylcellulose) (HPC).
Setting [8] is: dose: 400.0 mg/kg/injection, schedule: Q01DX009 (ip), vehicle: Klucel (hydroxypropylcellulose) (HPC).
Where [9] appears, read: dose: 400.0 mg/kg/injection, schedule: Q04DX003 (ip), vehicle: Klucel (hydroxypropylcellulose) (HPC).
Where [10] appears, read: dose: 100.0 mg/kg/injection, schedule: Q01DX001 (ip), vehicle: carboxymethylcellulose (CMC).
The mark [11] stands for this setting: dose: 200.0 mg/kg/injection, schedule: Q01DX001 (ip), vehicle: carboxymethylcellulose (CMC).
[12] abbreviates: dose: 400.0 mg/kg/injection, schedule: Q01DX001 (ip), vehicle: carboxymethylcellulose (CMC).
The mark [13] stands for this setting: dose: 200.0 mg/kg/injection, schedule: Q01DX009 (ip), vehicle: saline with Tween-80.
Setting [14] is: dose: 400.0 mg/kg/injection, schedule: Q01DX009 (ip), vehicle: saline with Tween-80.
[15] abbreviates: dose: 100.0 mg/kg/injection, schedule: Q04DX002 (ip), vehicle: saline with Tween-80.
Setting [16] is: dose: 200.0 mg/kg/injection, schedule: Q04DX002 (ip), vehicle: saline with Tween-80.
The mark [17] stands for this setting: dose: 100.0 mg/kg/injection, schedule: Q01DX009 (ip), vehicle: saline with Tween-80.
Where [18] appears, read: dose: 100.0 mg/kg/injection, schedule: Q04DX003 (ip), vehicle: saline with Tween-80.
Setting [19] is: dose: 200.0 mg/kg/injection, schedule: Q04DX003 (ip), vehicle: saline with Tween-80.
Setting [20] is: dose: 400.0 mg/kg/injection, schedule: Q04DX003 (ip), vehicle: saline with Tween-80.

On to `CN(C)/N=C1/CC(=O)CC(C)(C)C1`, for which the T/C by setting is: (dose: 50.0 mg/kg/injection, schedule: Q01DX009 (ip), vehicle: Klucel (hydroxypropylcellulose) (HPC)) 110 % of control; under setting [1], 100 % of control; under setting [2], 100 % of control.

For the molecule `CCN=C(c1ccc(NC(=O)c2ccc(C(=O)Nc3ccc(C(=NCC)N(CC)C(=O)C(F)(F)C(F)(F)C(F)(F)F)cc3)cc2)cc1)N(CC)C(=O)C(F)(F)C(F)(F)C(F)(F)F`, the T/C (dose: 1.5 mg/kg/injection, schedule: Q01DX015 (ip), vehicle: methylcellulose (MC)) was 96 % of control; the T/C (dose: 3.0 mg/kg/injection, schedule: Q01DX015 (ip), vehicle: methylcellulose (MC)) is 113 % of control; the T/C (dose: 7.5 mg/kg/injection, schedule: Q01DX015 (ip), vehicle: methylcellulose (MC)) is 153 % of control; the T/C (dose: 12.0 mg/kg/injection, schedule: Q01DX015 (ip), vehicle: methylcellulose (MC)) is 124 % of control.

Consider `COc1ccccc1CC(=O)Oc1ccccc1`, for which the T/C was 97 % of control under setting [3], 96 % of control under setting [4] and 102 % of control under setting [5].

On to `O=[N+]([O-])c1ccc(CC(O)c2ccccc2Cl)cc1` (stereo unspecified), for which the T/C runs as follows: under setting [1], 102 % of control; under setting [6], 101 % of control; under setting [2], 102 % of control; under setting [7], 101 % of control; under setting [8], 97 % of control; under setting [9], 97 % of control.

On to `COC(=O)CC(=O)/C(=C/C(C/C=C(\C(=O)CC(=O)OC)C(=O)OC)OC)C(=O)OC` (stereo unspecified), for which the T/C by setting is: (dose: 50.0 mg/kg/injection, schedule: Q01DX001 (ip), vehicle: carboxymethylcellulose (CMC)) 103 % of control; under setting [10], 101 % of control; under setting [11], 101 % of control; under setting [12], 100 % of control.

As to `O=c1ccnc(/C=C/c2ccc(Cl)cc2)[nH]1`, the T/C runs as follows: under setting [13], 87 % of control; under setting [14], 96 % of control.

As to `C[N+](C)(C)CCCN1c2ccccc2S(=O)c2ccc(Cl)cc21` (stereo unspecified), the T/C runs as follows: under setting [10], 100 % of control; under setting [11], 103 % of control; under setting [12], 103 % of control.

As to `Cc1cccc(NC(=O)c2ccccc2C(=O)O)c1C`, the T/C was 98 % of control under setting [1]; 98 % of control under setting [6]; 93 % of control under setting [2]; 95 % of control under setting [7]; 96 % of control under setting [8]; 93 % of control under setting [9].

For `CC1(CO)CC2C=CC1C2` (stereo unspecified), the T/C by setting is: under setting [15], 99 % of control; under setting [16], 99 % of control; (dose: 400.0 mg/kg/injection, schedule: Q04DX002 (ip), vehicle: saline with Tween-80) 99 % of control.

Turning to `CCC1(c2ccccc2)OC1C(=O)OCCC(C)C` (stereo unspecified), the T/C runs as follows: (dose: 100.0 mg/kg/injection, schedule: Q04DX002 (ip), vehicle: saline) 93 % of control; (dose: 200.0 mg/kg/injection, schedule: Q04DX002 (ip), vehicle: saline) 93 % of control; (dose: 400.0 mg/kg/injection, schedule: Q04DX002 (ip), vehicle: saline) 101 % of control.

Regarding `CCCCCCCCCCCCOc1ccc(C)cc1`, the T/C is 97 % of control under setting [17]; 88 % of control under setting [18]; 93 % of control under setting [13]; 88 % of control under setting [19]; 97 % of control under setting [14]; 93 % of control under setting [20].

For the molecule `CCCCCCC(CO)CO`, the T/C under setting [3] is 89 % of control, the T/C under setting [4] is 91 % of control and the T/C under setting [5] was 94 % of control.

On to `CCC[CH2][Sn]1([CH2]CCC)[O]OC(c2ccc(OC)cc2)[O]1` (stereo unspecified), for which the T/C runs as follows: (dose: 6.25 mg/kg/injection, schedule: Q01DX005 (sc), vehicle: olive oil, sesame oil, peanut oil) 95 % of control; (dose: 6.25 mg/kg/injection, schedule: Q01DX009 (sc), vehicle: olive oil, sesame oil, peanut oil) 104 % of control and 88 % of control; (dose: 12.5 mg/kg/injection, schedule: Q01DX005 (sc), vehicle: olive oil, sesame oil, peanut oil) 106 % of control; (dose: 12.5 mg/kg/injection, schedule: Q01DX009 (sc), vehicle: olive oil, sesame oil, peanut oil) 104 % of control and 91 % of control; (dose: 25.0 mg/kg/injection, schedule: Q01DX005 (sc), vehicle: olive oil, sesame oil, peanut oil) 95 % of control; (dose: 25.0 mg/kg/injection, schedule: Q04DX002 (sc), vehicle: olive oil, sesame oil, peanut oil) 97 % of control. For the same molecule, the T/C runs as follows: (dose: 50.0 mg/kg/injection, schedule: Q04DX002 (sc), vehicle: olive oil, sesame oil, peanut oil) 106 % of control; (dose: 100.0 mg/kg/injection, schedule: Q04DX002 (sc), vehicle: olive oil, sesame oil, peanut oil) 100 % of control.

In the case of `CCC(C#N)(CCN(CC=C(C)C)CC=C(C)C)c1cccc2ccccc12` (stereo unspecified), the T/C under setting [6] was 96 % of control.

With `Cc1cc([N+](=O)[O-])c2ccccc2c1N`, the T/C reads like this: under setting [17], 117 % of control; under setting [13], 98 % of control; under setting [14], 105 % of control.

Regarding `CCOC(=O)C1C(=O)CC(C)(O)C(C(=O)OCC)C1c1ccccc1` (stereo unspecified), the T/C by setting is: under setting [3], 98 % of control; (dose: 100.0 mg/kg/injection, schedule: Q04DX003 (ip), vehicle: saline) 104 % of control; under setting [4], 106 % of control; (dose: 200.0 mg/kg/injection, schedule: Q04DX003 (ip), vehicle: saline) 100 % of control; under setting [5], 109 % of control; (dose: 400.0 mg/kg/injection, schedule: Q04DX003 (ip), vehicle: saline) 94 % of control.

In the case of `O=C1O/C(=C/c2ccccc2)C(O)=C1c1ccccc1`, the T/C is 93 % of control under setting [15] and 103 % of control under setting [16].

Regarding `CCOC(=O)c1cnc(SC)nc1Sc1ccc(Cl)cc1`, the T/C under setting [17] is 96 % of control; the T/C under setting [18] is 96 % of control; the T/C under setting [13] is 94 % of control; the T/C under setting [19] is 96 % of control; the T/C under setting [14] was 98 % of control; the T/C under setting [20] is 94 % of control.

As for `Cc1ccc2c(ccc[n+]2C)c1`, the T/C runs as follows: (dose: 75.0 mg/kg/injection, schedule: Q01DX001 (ip), vehicle: saline) 103 % of control; (dose: 150.0 mg/kg/injection, schedule: Q01DX001 (ip), vehicle: saline) 106 % of control.

Consider `CCCCCCCCCCCCOCCCCCCCCCCCC`, for which the T/C is 104 % of control (dose: 100.0 mg/kg/injection, schedule: Q01DX009 (sc), vehicle: olive oil, sesame oil, peanut oil); 114 % of control (dose: 100.0 mg/kg/injection, schedule: Q04DX003 (sc), vehicle: olive oil, sesame oil, peanut oil); 100 % of control (dose: 200.0 mg/kg/injection, schedule: Q01DX009 (sc), vehicle: olive oil, sesame oil, peanut oil); 106 % of control (dose: 200.0 mg/kg/injection, schedule: Q04DX003 (sc), vehicle: olive oil, sesame oil, peanut oil); 102 % of control (dose: 400.0 mg/kg/injection, schedule: Q01DX009 (sc), vehicle: olive oil, sesame oil, peanut oil); 104 % of control (dose: 400.0 mg/kg/injection, schedule: Q04DX003 (sc), vehicle: olive oil, sesame oil, peanut oil).

For the molecule `CCOC(=O)c1cc[n+](C)c2ccccc12`, the T/C is, setting by setting: (dose: 9.37 mg/kg/injection, schedule: Q01DX009 (ip), vehicle: acetone) 101 % of control; (dose: 18.75 mg/kg/injection, schedule: Q01DX009 (ip), vehicle: acetone) 95 % of control; (dose: 37.5 mg/kg/injection, schedule: Q01DX009 (ip), vehicle: acetone) 98 % of control; (dose: 37.5 mg/kg/injection, schedule: Q04DX003 (ip), vehicle: acetone) 92 % of control; (dose: 75.0 mg/kg/injection, schedule: Q04DX003 (ip), vehicle: acetone) 89 % of control; (dose: 150.0 mg/kg/injection, schedule: Q01DX001 (ip), vehicle: acetone) 89 % of control.
